Source: US9475815B2, “Substituted benzothienyl-pyrrolotriazines and uses thereof” (Bayer Intellectual Property GmbH, priority 2012, dated 2016)
Structures can show the parent of a compound that is named as a salt.

Experiments:
human mTOR = human mTOR (Homo sapiens (Human), UniProt P42345); test: mTOR kinase assay (TR-FRET, for comparative purposes); type: biochemical; settings: for inhibition at 1 µM: read-out: mTOR % inhibition @ 1 μM, 1 μM test compound, 40 μM ATP, mean values
Procedure: mTOR inhibitory activity of the compounds of the present invention was quantified employing the TR-FRET based mTOR assay as described in the following paragraphs:
Test compounds were dissolved in DMSO to generate 10 mM stock solutions. These solutions were first 10-fold diluted by 100% DMSO to get 1 mM solutions in 100% DMSO, then 100-fold diluted by 50% DMSO to get 10 μM solutions in 50% DMSO.
(final concentration in the 10 μl assay volume=1 nM) in FRET buffer.
For this, the fluorescence emissions at 495 nm and 520 nm after excitation at 340 nm was measured in an Envision 2104 multilabel reader (Perkin-Elmer).

human FGFR-1 = human FGFR-1 (Homo sapiens, UniProt P11362); test: FGFR-1 high ATP kinase assay (TR-FRET)
human FGFR-3 = human FGFR-3 (Homo sapiens (Human), UniProt P22607); test: FGFR-3 kinase assay (TR-FRET); type: biochemical; settings: 10 μM ATP, 15 min pre-incubation with enzyme
human FGFR-3, sequence (P22607 397-806): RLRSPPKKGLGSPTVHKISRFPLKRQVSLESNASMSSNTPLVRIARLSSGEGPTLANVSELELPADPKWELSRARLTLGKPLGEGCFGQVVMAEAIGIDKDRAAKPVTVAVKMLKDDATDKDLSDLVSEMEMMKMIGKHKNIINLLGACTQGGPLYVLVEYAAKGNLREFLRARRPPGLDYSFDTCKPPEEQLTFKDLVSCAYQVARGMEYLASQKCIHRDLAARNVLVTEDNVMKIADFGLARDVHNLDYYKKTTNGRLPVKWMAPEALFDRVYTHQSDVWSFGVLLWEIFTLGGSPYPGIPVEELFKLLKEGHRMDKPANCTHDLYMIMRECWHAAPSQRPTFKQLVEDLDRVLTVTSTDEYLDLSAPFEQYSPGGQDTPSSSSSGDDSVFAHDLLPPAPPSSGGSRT

human FGFR-1, sequence (P11362 22-822 limits assumed): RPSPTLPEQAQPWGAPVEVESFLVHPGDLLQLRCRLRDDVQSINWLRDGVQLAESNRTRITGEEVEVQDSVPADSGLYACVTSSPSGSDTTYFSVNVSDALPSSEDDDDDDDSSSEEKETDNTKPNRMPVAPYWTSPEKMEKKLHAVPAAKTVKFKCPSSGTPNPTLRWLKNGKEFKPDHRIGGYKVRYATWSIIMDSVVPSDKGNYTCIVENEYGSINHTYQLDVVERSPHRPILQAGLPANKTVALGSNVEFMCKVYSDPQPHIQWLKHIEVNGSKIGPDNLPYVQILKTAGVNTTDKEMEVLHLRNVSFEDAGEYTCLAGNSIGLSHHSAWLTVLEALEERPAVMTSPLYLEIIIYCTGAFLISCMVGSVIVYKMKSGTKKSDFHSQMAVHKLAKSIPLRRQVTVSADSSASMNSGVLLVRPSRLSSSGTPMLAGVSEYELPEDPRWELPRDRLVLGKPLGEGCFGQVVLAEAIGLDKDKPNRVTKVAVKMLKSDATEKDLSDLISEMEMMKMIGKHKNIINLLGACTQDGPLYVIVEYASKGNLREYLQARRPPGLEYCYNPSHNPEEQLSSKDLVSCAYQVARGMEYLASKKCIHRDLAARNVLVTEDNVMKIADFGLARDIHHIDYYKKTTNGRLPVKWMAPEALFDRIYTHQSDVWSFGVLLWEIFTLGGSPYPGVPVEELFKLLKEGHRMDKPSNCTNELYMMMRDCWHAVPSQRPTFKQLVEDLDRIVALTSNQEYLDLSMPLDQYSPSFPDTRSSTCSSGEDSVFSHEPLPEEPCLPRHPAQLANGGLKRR
human mTOR, sequence (P42345 1360-2549): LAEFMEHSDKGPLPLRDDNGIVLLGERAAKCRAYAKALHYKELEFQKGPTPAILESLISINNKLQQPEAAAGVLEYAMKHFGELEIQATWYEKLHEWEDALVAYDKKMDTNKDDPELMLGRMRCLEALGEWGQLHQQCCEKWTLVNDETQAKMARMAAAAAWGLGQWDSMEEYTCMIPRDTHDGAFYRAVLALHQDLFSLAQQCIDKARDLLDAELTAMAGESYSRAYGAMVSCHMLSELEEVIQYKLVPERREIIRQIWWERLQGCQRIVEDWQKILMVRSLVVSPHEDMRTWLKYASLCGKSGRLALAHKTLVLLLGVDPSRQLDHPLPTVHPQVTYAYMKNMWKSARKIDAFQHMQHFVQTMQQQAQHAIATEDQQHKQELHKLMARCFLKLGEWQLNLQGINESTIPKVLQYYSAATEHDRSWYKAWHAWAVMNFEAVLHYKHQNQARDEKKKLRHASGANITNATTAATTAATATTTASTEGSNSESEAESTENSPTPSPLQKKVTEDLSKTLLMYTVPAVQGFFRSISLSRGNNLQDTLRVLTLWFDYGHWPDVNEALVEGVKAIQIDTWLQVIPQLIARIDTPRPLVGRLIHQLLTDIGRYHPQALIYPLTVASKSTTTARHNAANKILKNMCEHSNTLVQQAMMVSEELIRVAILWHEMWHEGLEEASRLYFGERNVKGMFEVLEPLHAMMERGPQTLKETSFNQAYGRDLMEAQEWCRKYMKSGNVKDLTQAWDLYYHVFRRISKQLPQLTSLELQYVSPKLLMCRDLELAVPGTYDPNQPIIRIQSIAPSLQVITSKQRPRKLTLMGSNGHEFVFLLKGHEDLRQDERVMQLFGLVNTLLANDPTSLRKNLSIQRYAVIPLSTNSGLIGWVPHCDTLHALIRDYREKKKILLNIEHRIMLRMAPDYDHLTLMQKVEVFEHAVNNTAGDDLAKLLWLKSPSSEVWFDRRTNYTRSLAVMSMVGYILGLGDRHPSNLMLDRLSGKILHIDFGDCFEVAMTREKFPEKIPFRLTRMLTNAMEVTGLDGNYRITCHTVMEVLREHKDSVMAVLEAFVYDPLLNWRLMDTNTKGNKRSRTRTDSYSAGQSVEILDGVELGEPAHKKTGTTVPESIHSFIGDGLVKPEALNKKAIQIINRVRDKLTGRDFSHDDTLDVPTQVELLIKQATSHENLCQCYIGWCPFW

Compound | inhibition at 1 µM (human mTOR) [%] | IC50 (human FGFR-1) [nM] | IC50 (human FGFR-3) [nM] | mTOR % inhibition @ 1 μM (human mTOR; 1 μM test compound, 40 μM ATP, mean values)
COc1cc(C)cc2cc(-c3cc(CN4CC(C)NCC4C)n4ncnc(N)c34)sc12 (stereo not shown) [Example 44] | 10.8 | 38.8 | – | –
COc1cc(C)cc2cc(-c3cc(CNC4CCS(=O)(=O)C4)n4ncnc(N)c34)sc12 (stereo not shown) [Example 78] | 35.6 | 86.6 | 95.8 | –
COc1cc(C)cc2cc(-c3cc(CN4CCCC4c4ccc(C)cc4)n4ncnc(N)c34)sc12 (stereo not shown) [Example 79] | 16.7 | 93 | 48.6 | –
CNC(=O)CNCc1cc(-c2cc3cc(C)cc(OC)c3s2)c2c(N)ncnn12 [Example 28] | 6.9 | 83.2 | 63.7 | –
COc1cc(C)cc2cc(-c3cc(CNCCNC(N)=O)n4ncnc(N)c34)sc12 [Example 30] | 16.2 | 54.2 | – | –
COc1cc(C)cc2cc(-c3cc(CNCCNC(C)(C)C)n4ncnc(N)c34)sc12 [Example 34] | 4.9 | 99.3 | – | –
COc1cc(C)cc2cc(-c3cc(CNCCN4CCC(O)CC4)n4ncnc(N)c34)sc12 [Example 58] | 12.6 | 36.2 | 46.7 | –
COc1cc(C)cc2cc(-c3cc(CN4CCC(N5CCCC5)C4)n4ncnc(N)c34)sc12 (stereo not shown) [Example 60] | 11.3 | 39.6 | 58.6 | –
COc1cc(C)cc2cc(-c3cc(CNC4CCC(N)C4)n4ncnc(N)c34)sc12 (stereo not shown) [Example 40] | 15 | 63.8 | – | –
COc1cc(C)cc2cc(-c3cc(CN4CCN(CC(N)=O)CC4)n4ncnc(N)c34)sc12 [Example 64] | 28.2 | 48.9 | 56.4 | –
COc1cc(C)cc2cc(-c3cc(COCCN(C)C)n4ncnc(N)c34)sc12 [Example 108, 7-{[2-(Dimethylamino)ethoxy]methyl}-5-(7-methoxy-5-methyl-1-benzothiophen-2-yl)pyrrolo-[2,1-f][1,2,4]triazin-4-amine dihydrochloride] | 7.1 | 97.6 | – | –
COc1cc(C)cc2cc(-c3cc(CN4CC(N5CCCC5)C4)n4ncnc(N)c34)sc12 [Example 71] | 21.5 | 63.4 | 79.3 | –
COc1cc(C)cc2cc(-c3cc(CN4CCC(N)CC4)n4ncnc(N)c34)sc12 [Example 26] | – | 82.6 | 130 | no inhib. effect detect.
Nc1nccn2c(C3CCN(C(=O)c4ccsc4)CC3)nc(-c3cc4ccccc4s3)c12 [WO 2007/061737 Example 157, reference compound] | – | 3000 | 2300 | –
COc1cc(C)cc2cc(-c3cc(CN4CCN5CCCC5C4)n4ncnc(N)c34)sc12 (stereo not shown) [Example 50] | 3.4 | 59.3 | – | –
COc1cc(C)cc2cc(-c3cc(CN4CCCN(C)CC4)n4ncnc(N)c34)sc12 [Example 89] | 28.7 | 24.9 | 28.2 | –
COc1cc(C)cc2cc(-c3cc(CN4CC(O)C4)n4ncnc(N)c34)sc12 [Example 91] | 17.7 | 36.9 | 23.9 | –
COc1cc(C)cc2cc(-c3cc(CN4CCC[C@@H](N)C4)n4ncnc(N)c34)sc12 [Example 55] | 24.6 | 16.2 | 18.7 | –
CCC1CN(Cc2cc(-c3cc4cc(C)cc(OC)c4s3)c3c(N)ncnn23)CCN1 (stereo not shown) [Example 36] | 18.3 | 17 | – | –
COc1cc(C)cc2cc(-c3cc(CO[C@@H]4CCNC4)n4ncnc(N)c34)sc12 [Example 118] | 18.4 | 26.1 | 45 | –
COc1cc(C)cc2cc(-c3cc(CN4CCN(C(=O)C5CC5)CC4)n4ncnc(N)c34)sc12 [Example 93, (4-{[4-Amino-5-(7-methoxy-5-methyl-1-benzothiophen-2-yl)pyrrolo[2,1-f][1,2,4]triazin-7-yl]-methyl}piperazin-1-yl)(cyclopropyl)methanone] | 47.2 | 67 | – | –
COc1cc(C)cc2cc(-c3cc(CN4CC[C@@H](N)C4)n4ncnc(N)c34)sc12 [Example 53] | 12.6 | 94.1 | 145 | –
COc1cccc2cc(-c3cc(CN4CCNCC4)n4ncnc(N)c34)sc12 [Example 3, 5-(7-Methoxy-1-benzothiophen-2-yl)-7-(piperazin-1-ylmethyl)pyrrolo[2,1-f][1,2,4]triazin-4-amine] | 12.2 | 92.8 | – | –
COc1cc(C)cc2cc(-c3cc(CN4CCC(OC)CC4)n4ncnc(N)c34)sc12 [Example 82] | 18.7 | 97.3 | 71.9 | –

Compound | inhibition at 1 µM (human mTOR) [%] | IC50 (human FGFR-1) [nM] | IC50 (human FGFR-3) [nM] | mTOR % inhibition @ 1 μM (human mTOR; 1 μM test compound, 40 μM ATP, mean values)
Cc1c(-c2nc(C3CCN(C(=O)c4ccsc4)CC3)n3ccnc(N)c23)sc2ccccc12 [WO 2007/061737 Example 209, reference compound] | – | 2800 | 786 | –
CNCCNCc1cc(-c2cc3cc(C)cc(OC)c3s2)c2c(N)ncnn12 [Example 29] | 2.4 | 50.4 | – | –
COc1cc(C)cc2cc(-c3cc(CN4CC5CC5(N)C4)n4ncnc(N)c34)sc12 (stereo not shown) [Example 27] | 2.4 | 42.2 | 60.8 | –
COc1cc(C)cc2cc(-c3cc(CN4CCNC(C(=O)O)C4)n4ncnc(N)c34)sc12 (stereo not shown) [Example 38] | 11.2 | 45.7 | – | –
COc1cc(C)cc2cc(-c3cc(CN4CNC(=O)C4)n4ncnc(N)c34)sc12 [Example 63] | 26 | – | 34.5 | –
COc1cc(C)cc2cc(-c3cc(CN4CCCNCC4)n4ncnc(N)c34)sc12 [Example 48] | 16.9 | 28.9 | – | –
COc1cc(C)cc2cc(-c3cc(CN4CCNC(c5cccs5)C4)n4ncnc(N)c34)sc12 (stereo not shown) [Example 35] | 34 | 16.4 | – | –
CCN1CCN(Cc2cc(-c3cc4cc(C)cc(OC)c4s3)c3c(N)ncnn23)CC1 [Example 13, 7-[(4-Ethylpiperazin-1-yl)methyl]-5-(7-methoxy-5-methyl-1-benzothiophen-2-yl)pyrrole[2,1-f]-[1,2,4]triazin-4-amine formiate] | 25.2 | 93.6 | – | –
COc1cc(C)cc2cc(-c3cc(CN4CCN(C(=O)CCC(N)=O)CC4)n4ncnc(N)c34)sc12 [Example 95, 4-(4-{[4-Amino-5-(7-methoxy-5-methyl-1-benzothiophen-2-yl)pyrrolo[2,1-f][1,2,4]triazin-7-yl]-methyl}piperazin-1-yl)-4-oxobutanamide dihydrochloride] | 40.3 | 95.7 | – | –
COc1cc(C)cc2cc(-c3cc(CNCCN)n4ncnc(N)c34)sc12 [Example 32] | 41.3 | 23.3 | – | –
COc1cc(C)cc2cc(-c3cc(CN4CCNC(C(C)(C)C)C4)n4ncnc(N)c34)sc12 (stereo not shown) [Example 49] | 1.3 | 58.9 | – | –
COc1cc(C)cc2cc(-c3cc(CN(C)CCCN(C)C)n4ncnc(N)c34)sc12 [Example 52] | 7.3 | 87.8 | – | –
COc1cc(C)cc2cc(-c3cc(CN4CCNC(=O)C4C)n4ncnc(N)c34)sc12 (stereo not shown) [Example 39] | 21.4 | 57.1 | – | –
COc1cc(C)cc2cc(-c3cc(CN4CCNC(C)C4)n4ncnc(N)c34)sc12 (stereo not shown) [Example 51] | 0.9 | 41.3 | – | –
COc1cc(C)cc2cc(-c3cc(CNC4CCCN(C)C4)n4ncnc(N)c34)sc12 (stereo not shown) [Example 43] | 13.8 | 50.6 | – | –
COc1cc(C)cc2cc(-c3cc(CN4C[C@@H]5CCCN[C@@H]5C4)n4ncnc(N)c34)sc12 [Example 47] | 29 | 25.2 | – | –
Nc1nccn2c(C3CCC3)nc(-c3cc4ccccc4s3)c12 [WO 2007/061737 Example 120, reference compound] | – | – | 506 | –
COc1cc(C)cc2cc(-c3cc(CN4CCN(C)CC4)n4ncnc(N)c34)sc12 [Example 12, 5-(7-Methoxy-5-methyl-1-benzothiophen-2-yl)-7-[(4-methylpiperazin-1-yl)methyl]pyrrole[2,1-f]-[1,2,4]triazin-4-amine bis(formiate)] | 11.4 | 39.1 | – | –
COc1cc(C)cc2cc(-c3cc(CN4CCN(CCO)CC4)n4ncnc(N)c34)sc12 [Example 25] | 10.2 | 73.3 | – | –
COc1cc(C)cc2cc(-c3cc(CNC4CCCNC4=O)n4ncnc(N)c34)sc12 (stereo not shown) [Example 37] | 13.4 | 44.9 | – | –
Nc1nccn2c(C3CCC3)nc(-c3ccc4sccc4c3)c12 [WO 2007/061737 Example 4, reference compound] | – | – | 2400 | –
COc1cc(C)cc2cc(-c3cc(CN4CCN(C(=O)C5CCC5)CC4)n4ncnc(N)c34)sc12 [Example 94, (4-{[4-Amino-5-(7-methoxy-5-methyl-1-benzothiophen-2-yl)pyrrolo[2,1-f][1,2,4]triazin-7-yl]-methyl}piperazin-1-yl)(cyclobutyl)methanone] | 44.7 | 68.1 | – | –
Nc1nccn2c(C3CCNCC3)nc(-c3cc4ccccc4[nH]3)c12 [WO 2007/061737 Example 25, reference compound] | – | 880 | 1200 | –
COc1cc(C)cc2cc(-c3cc(CN(C)C4CCN(C)C4)n4ncnc(N)c34)sc12 (stereo not shown) [Example 46] | 26.3 | 20.8 | – | –
